From patent US20240182420A1, “MICROBIOCIDAL ISONICOTINIC AMIDE DERIVATIVES” (SYNGENTA CROP PROTECTION AG, priority 2021, published 2024)

Columns and labels:
[1] = test system: Monographella nivalis syn. Microdochium nivale, Fusarium nivale; assay: Monographella nivalis syn. Microdochium nivale (snow mould, foot rot), liquid culture growth inhibition; assay type: cell-based; details: PDB nutrient broth, 24° C., 72 hrs, 620 nm, vs untreated control
Experimental: (§1) Conidia of the fungus from cryogenic storage were directly mixed into nutrient broth (PDB potato dextrose broth). A DMSO solution of the test compounds was placed into a microtiter plate (96-well format) and the nutrient broth containing the fungal spores was added to it. The test plates were incubated at 24° C. and the inhibition of growth was determined photometrically after 72 hrs at 620 nm.

[2] = test system: Botryotinia fuckeliana syn. Botrytis cinerea; assay: Botryotinia fuckeliana syn. Botrytis cinerea (grey mold on tomato), tomato plants; assay type: in vivo; details: tomato plants cv. Roter Gnom, inoculated two days after application, leaf area covered by disease 5-6 days after application
Experimental: 4-week old tomato plants cv. Roter Gnom are treated sprayed in a spray chamber with the formulated test compound diluted in water. The test plants are inoculated by spraying them with a spore suspension two days after application. The inoculated test plants are incubated at 20° C. and 95% rh in a greenhouse and the percentage leaf area covered by disease is assessed when an appropriate level of disease appears on untreated check plants (5-6 days after application).

[3] = test system: Botryotinia fuckeliana syn. Botrytis cinerea; assay: Botryotinia fuckeliana syn. Botrytis cinerea (gray mould), liquid culture growth inhibition; assay type: cell-based; details: PDB nutrient broth, 24° C., 72 hrs, photometric, vs untreated control
Experimental: as §1, with “hrs.” for “hrs at 620 nm.”

[4] = test system: Glomerella lagenarium syn Colletotrichum lagenarium; assay: Glomerella lagenarium syn. Colletotrichum lagenarium (anthracnose), liquid culture growth inhibition; assay type: cell-based; details: Colletotrichum orbiculare, PDB nutrient broth, 24° C., 72 hrs, 620 nm, vs untreated control
Experimental: as §1

SMILES	inhibition of growth at 20 ppm [1]	pest or weed control at 200 ppm [2]	inhibition of growth at 20 ppm [3]	inhibition of growth at 20 ppm [4]
Cc1ccccc1CCNC(=O)c1cc(Cl)ncc1Oc1cccc(C2CC2)c1 [Compound 1.36, 2-chloro-5-(3-cyclopropyl-phenoxy)-N-[2-(o-tolyl)ethyl]pyridine-4-carboxamide]	≥ 80%			
O=C(NCCc1ccc(Cl)cc1Cl)c1cc(Cl)ncc1Oc1cccc(C2CC2)c1 [Compound 1.15, 2-chloro-5-(3-cyclopropyl-phenoxy)-N-[2-(2,4-dichlorophenyl)ethyl]pyridine-4-carboxamide]		≥ 50%	≥ 80%	≥ 80%
O=C(NC1(Cc2ccccc2)CC1)c1cc(Cl)ncc1Oc1cccc(C2CC2)c1 [Compound 1.49, N-(1-benzylcyclopropyl)-2-chloro-5-(3-cyclopropylphenoxy) pyridine-4-carboxamide]	≥ 80%			
O=C(NCC(F)c1ccc(Cl)cc1Cl)c1cc(Cl)ncc1Oc1cccc(C2CC2)c1 (stereo not shown) [Compound 1.16, 2-chloro-5-(3-cyclopropyl-phenoxy)-N-[2-(2,4-dichlorophenyl)-2-fluoro-ethyl]pyridine-4-carboxamide]		≥ 50%	≥ 80%	≥ 80%
Cc1cc(C)cc(CCNC(=O)c2cc(Cl)ncc2Oc2cccc(C3CC3)c2)c1 [Compound 1.50, 2-chloro-5-(3-cyclopropylphenoxy)-N-[2-(3,5-dimethylphenyl)ethyl]pyridine-4-carboxamide]	≥ 80%			
CS(=O)(=O)c1cc(C(=O)NCC(F)c2ccc(Cl)cc2Cl)c(Oc2cccc(C3CC3)c2)cn1 (stereo not shown) [Compound 1.10, 5-(3-cyclopropyl-phenoxy)-N-[2-(2,4-dichlorophenyl)-2-fluoro-ethyl]-2-methylsulfonyl-pyridine-4-carboxamide]		≥ 50%	≥ 80%	≥ 80%
COc1ccc(CCNC(=O)c2cc(Cl)ncc2Oc2ccccc2)cc1OC [Compound 1.44, 2-chloro-N-[2-(3,4-dimethoxyphenyl)ethyl]-5-phenoxy-pyridine-4-carboxamide]	≥ 80%			
COc1ccc(CCNC(=O)c2cc(Cl)ncc2Oc2cccc(C3CC3)c2)cc1 [Compound 1.35, 2-chloro-5-(3-cyclopropyl-phenoxy)-N-[2-(4-methoxyphenyl)ethyl]pyridine-4-carboxamide]		≥ 50%	≥ 80%	≥ 80%
O=C(NCC(F)c1ccc(Cl)cc1Cl)c1cc(C2CC2)ncc1Oc1cccc(C2CC2)c1 (stereo not shown) [Compound 1.22, 2-cyclopropyl-5-(3-cyclopropyl-phenoxy)-N-[2-(2,4-dichlorophenyl)-2-fluoro-ethyl]pyridine-4-carboxamide]		≥ 50%	≥ 80%	≥ 80%
O=C(NCC(F)c1ccc(F)cc1F)c1cc(Cl)ncc1Oc1cccc(C2CC2)c1 (stereo not shown) [Compound 1.58, 2-chloro-5-(3-cyclopropyl-phenoxy)-N-[2-(2,4-difluorophenyl)-2-fluoro-ethyl]pyridine-4-carboxamide]		≥ 50%	≥ 80%	≥ 80%
C#Cc1ccc(C(F)CNC(=O)c2cc(Cl)ncc2Oc2cccc(C3CC3)c2)c(F)c1 (stereo not shown) [Compound 1.82, 2-chloro-5-(3-cyclopropyl-phenoxy)-N-[2-(4-ethynyl-2-fluoro-phenyl)-2-fluoro-ethyl]pyridine-4-carboxamide]		≥ 50%	≥ 80%	≥ 80%
O=C(NCCc1ccc(Cl)cc1Cl)c1c(Cl)cncc1Oc1cccc(C2CC2)c1 [Compound 1.21, 3-chloro-5-(3-cyclopropyl-phenoxy)-N-[2-(2,4-dichlorophenyl)ethyl]pyridine-4-carboxamide]		≥ 50%	≥ 80%	≥ 80%
O=C(NCC(F)c1ccc(Cl)cc1Cl)c1ccncc1Oc1cccc(C2CC2)c1 (stereo not shown) [Compound 1.11, 3-(3-cyclopropyl-phenoxy)-N-[2-(2,4-dichlorophenyl)-2-fluoro-ethyl]pyridine-4-carboxamide]		≥ 50%		≥ 80%
CCc1ccc(C(F)CNC(=O)c2cc(Cl)ncc2Oc2cccc(C3CC3)c2)c(F)c1 (stereo not shown) [Compound 1.80, 2-chloro-5-(3-cyclopropyl-phenoxy)-N-[2-(4-ethyl-2-fluoro-phenyl)-2-fluoro-ethyl]pyridine-4-carboxamide]		≥ 50%	≥ 80%	≥ 80%
Cc1ccc(CCNC(=O)c2cc(Cl)ncc2Oc2cccc(C3CC3)c2)cc1 [Compound 1.53, 2-chloro-5-(3-cyclopropyl-phenoxy)-N-[2-(p-tolyl)ethyl]pyridine-4-carboxamide]			≥ 80%	≥ 80%
COc1cncc(Oc2cccc(C3CC3)c2)c1C(=O)NCC(F)c1ccc(Cl)cc1Cl (stereo not shown) [Compound 1.91, 3-(3-cyclopropyl-phenoxy)-N-[2-(2,4-dichlorophenyl)-2-fluoro-ethyl]-5-methoxy-pyridine-4-carboxamide]		≥ 50%	≥ 80%	≥ 80%
C#Cc1cccc(Oc2cnc(Br)cc2C(=O)NCC(F)c2ccc(C)cc2C)c1 (stereo not shown) [Compound 1.43, 2-bromo-N-[2-(2,4-dimethylphenyl)-2-fluoro-ethyl]-5-(3-ethynylphenoxy) pyridine-4-carboxamide]		≥ 50%	≥ 80%	≥ 80%
O=C(NCC(F)c1ccc(Cl)cc1Cl)c1cc(C(F)(F)F)ncc1Oc1cccc(C2CC2)c1 (stereo not shown) [Compound 1.9, 5-(3-cyclopropyl-phenoxy)-N-[2-(2,4-dichlorophenyl)-2-fluoro-ethyl]-2-(trifluoromethyl) pyridine-4-carboxamide]		≥ 50%	≥ 80%	≥ 80%
O=C(NCC(F)c1ccc(Cl)cc1Cl)c1c(F)cncc1Oc1cccc(C2CC2)c1 (stereo not shown) [Compound 1.6, 3-(3-cyclopropyl-phenoxy)-N-[2-(2,4-dichlorophenyl)-2-fluoro-ethyl]-5-fluoro-pyridine-4-carboxamide]		≥ 50%	≥ 80%	≥ 80%
Cc1cc(C(=O)NC[C@H](F)c2ccc(Cl)cc2Cl)c(Oc2cccc(C3CC3)c2)cn1 [Compound 1.42, 5-(3-cyclopropyl-phenoxy)-N-[(2R)-2-(2,4-dichlorophenyl)-2-fluoro-ethyl]-2-methyl-pyridine-4-carboxamide]			≥ 80%	≥ 80%
O=C(NCC(F)(F)c1ccccc1)c1cc(Cl)ncc1Oc1cccc(C2CC2)c1 [Compound 1.71, 2-chloro-5-(3-cyclopropyl-phenoxy)-N-(2,2-difluoro-2-phenyl-ethyl)pyridine-4-carboxamide]			≥ 80%	≥ 80%
O=C(NCC(F)(F)c1ccc(F)cc1F)c1cc(Cl)ncc1Oc1cccc(C2CC2)c1 [Compound 1.32, 2-chloro-5-(3-cyclopropyl-phenoxy)-N-[2-(2,4-difluorophenyl)-2,2-difluoro-ethyl]pyridine-4-carboxamide]			≥ 80%	≥ 80%
Cc1ccc(C(F)(F)CNC(=O)c2cc(Cl)ncc2Oc2cccc(C3CC3)c2)c(C)c1 [Compound 1.76, 2-chloro-5-(3-cyclopropyl-phenoxy)-N-[2-(2,4-dimethylphenyl)-2,2-difluoro-ethyl]pyridine-4-carboxamide]			≥ 80%	≥ 80%
C#Cc1cccc(Oc2cnc(C)cc2C(=O)NCC(F)c2ccc(C)cc2C)c1 (stereo not shown) [Compound 1.38, N-[2-(2,4-dimethylphenyl)-2-fluoro-ethyl]-5-(3-ethynylphenoxy)-2-methyl-pyridine-4-carboxamide]		≥ 50%	≥ 80%	
COc1cccc(Oc2cnc(Cl)cc2C(=O)NCC(F)c2ccc(Cl)cc2Cl)c1 (stereo not shown) [Compound 1.61, 2-chloro-N-[2-(2,4-dichlorophenyl)-2-fluoro-ethyl]-5-(3-methoxyphenoxy) pyridine-4-carboxamide]		≥ 50%	≥ 80%	≥ 80%
Cc1cccc(Oc2cnc(Cl)cc2C(=O)NCCc2ccc(Cl)cc2Cl)c1 [Compound 1.4, 2-chloro-N-[2-(2,4-dichlorophenyl)ethyl]-5-(3-methylphenoxy)pyridine-4-carboxamide]		≥ 50%	≥ 80%	
Cc1cc(C(=O)NCC2(c3ccc(Cl)cc3Cl)CC2)c(Oc2cccc(C3CC3)c2)cn1 [Compound 1.90, 5-(3-cyclopropyl-phenoxy)-N-[[1-(2,4-dichlorophenyl)cyclopropyl]methyl]-2-methyl-pyridine-4-carboxamide]			≥ 80%	≥ 80%
